{
  "source": "patent US20230212519A1",
  "about": "“METHOD FOR PURIFYING CARDIOMYOCYTES” (ORIZURU THERAPEUTICS, INC., priority 2020, published 2023)",
  "tested_on": "embryoid body containing mixture of cardiomyocytes and non-cardiomyocytes",
  "test": "Sarcomeric α-actinin-positive cell rate by flow cytometer after treatment of embryoid body with compound",
  "type": "cell-based, human",
  "details": "Experimental Example 4; clinical iPS cell line; embryoid body treated from day 20 for 4 days; FK-228 1-30 nM, Entinostat 0.1-10 μM",
  "procedure": "On day 20, the embryoid body was recovered in a centrifugal tube, stood until a sediment of the embryoid body was formed, and the supernatant was aspirated while avoiding sucking the embryoid body. The medium was changed with a fresh 13 medium (same medium for myocardial differentiation as in Experimental Example 1), and divided into a 6-well plate with a medium amount of 3 mL/well so that an equal amount of the embryoid body would be placed in each well. Thereafter, an evaluation compound (1 nM to 10 μM) described in Table 1 or DMSO (0.1%) was added. […] It was centrifuged at 500 g for 1 min. The supernatant was removed, a solution of 500 μL of IMDM added with DNase 10 μg/mL and Liberase 100 μg/mL was added per one tube, and the mixture was stood at 37° C. under general oxygen conditions for 1 hr. […] The fixed cells were stained with an anti-sarcomeric α-actinin antibody, and the expression of sarcomeric α-actinin was analyzed with a flow cytometer. […]\nOn day 20, the embryoid body was recovered in a centrifugal tube, stood until a sediment of the embryoid body was formed, and the supernatant was aspirated while avoiding sucking the embryoid body. […] The fixed cells were stained with an anti-sarcomeric α-actinin antibody, and the sarcomeric α-actinin-positive cell rate was measured by analyzing the expression of sarcomeric α-actinin with a flow cytometer. […]",
  "data": [
    {"smiles": "Nc1ccccc1NC(=O)c1ccc(CNC(=O)OCc2cccnc2)cc1", "note": "[Entinostat]", "values": [
      {"measurement": "cardiomyocyte rate (sarcomeric α-actinin-positive cell rate)", "result": "improved"}
    ]}
  ]
}
